Structures can show the parent of a compound that is named as a salt.
Legend:
[1] = Stability of select salts of Compound 1 at 5, 25 and 40° C. over 6 months, purity by HPLC; format: physicochemical
Procedure: A description of the salt and the purity as determined by HPLC are provided initially and at the 1st, 2nd, 3rd, and 6th month for each salt.
Preparation of test solution: About 50.0 mg of test sample was weighed into a 25 mL of volumetric flask and diluent (10 mL) was added. The mixture was sonicated to dissolve sample and diluted up to mark with diluent and mixed well.

[2] = Photostability of iodide and nitrate salts (control, UV, visible); format: physicochemical; conditions: for Total impurities: photostability
Procedure: The photostability of Compound 1 iodide salt and Compound 1 nitrate salt were tested.
The photostability of Compound 2 iodide salt and Compound 2 nitrate salt were tested.

## C[C@H](NC(=O)OC[n+]1cccc(C(=O)NCCO[N+](=O)[O-])c1)C1CCCCC1 [Compound 1 Sulphate Salt]
[1]; 5° C., 1st Month
  Purity: 90.7
[1]; 5° C., 2nd Month
  Purity: 87.9
[1]; 5° C., 3rd Month
  Purity: 91.1
[1]; 5° C., 6th Month
  Purity: 90.9
[1]; 5° C., Initial
  Purity: 94.7
[1]; 25° C., 1st Month
  Purity: 90.0
[1]; 25° C., 2nd Month
  Purity: 56.9
[1]; 25° C., 3rd Month
  Purity: 33.7
[1]; 25° C., 6th Month
  Purity: 23.5
[1]; 25° C., Initial
  Purity: 94.7
[1]; 40° C., 1st Month
  Purity: 75.6
[1]; 40° C., 2nd Month
  Purity: 8.3
[1]; 40° C., 3rd Month
  Purity: 0.9
[1]; 40° C., 6th Month
  Purity: 1.5
[1]; 40° C., Initial
  Purity: 94.7

## C[C@H](NC(=O)OC[n+]1cccc(C(=O)NCCO[N+](=O)[O-])c1)C1CCCCC1 [Compound 1 4-Bromobesylate Salt]
[1]; 5° C., 1st Month
  Purity: 91.0
[1]; 5° C., 2nd Month
  Purity: 93.1
[1]; 5° C., 3rd Month
  Purity: 89.6
[1]; 5° C., 6th Month
  Purity: 86.6
[1]; 5° C., Initial
  Purity: 98.4
[1]; 25° C., 1st Month
  Purity: 89.0
[1]; 25° C., 2nd Month
  Purity: 84.2
[1]; 25° C., 3rd Month
  Purity: 76.8
[1]; 25° C., 6th Month
  Purity: 67.6
[1]; 25° C., Initial
  Purity: 98.4

## C[C@H](NC(=O)OC[n+]1cccc(C(=O)NCCO[N+](=O)[O-])c1)C1CCCCC1 [Compound 1 Esylate Salt]
[1]; 5° C., 1st Month
  Purity: 92.7
[1]; 5° C., 2nd Month
  Purity: 92.3
[1]; 5° C., 3rd Month
  Purity: 91.5
[1]; 5° C., 6th Month
  Purity: 89.6
[1]; 5° C., Initial
  Purity: 95.4
[1]; 25° C., 1st Month
  Purity: 91.4
[1]; 25° C., 2nd Month
  Purity: 84.4
[1]; 25° C., 3rd Month
  Purity: 73.9
[1]; 25° C., 6th Month
  Purity: 58.7
[1]; 25° C., Initial
  Purity: 95.4

## C[C@H](NC(=O)OC[n+]1cccc(C(=O)NCCO[N+](=O)[O-])c1)C1CCCCC1 [Compound 1 Perchlorate Salt]
[1]; 5° C., 1st Month
  Purity: 96.3
[1]; 5° C., 2nd Month
  Purity: 93.0
[1]; 5° C., 3rd Month
  Purity: 95.7
[1]; 5° C., 6th Month
  Purity: 94.8
[1]; 5° C., Initial
  Purity: 97.6
[1]; 25° C., 1st Month
  Purity: 95.4
[1]; 25° C., 2nd Month
  Purity: 89.4
[1]; 25° C., 3rd Month
  Purity: 84.9
[1]; 25° C., 6th Month
  Purity: 74.8
[1]; 25° C., Initial
  Purity: 97.6

## C[C@H](NC(=O)OC[n+]1cccc(C(=O)NCCO[N+](=O)[O-])c1)C1CCCCC1 [Compound 1 iodide salt]
[2]; UV
  Total impurities: 0.27
[2]; Visible
  Total impurities: 0.60
[2]; control sample
  Total impurities: 0.07

## C[C@H](NC(=O)OC[n+]1cccc(C(=O)NCCO[N+](=O)[O-])c1)C1CCCCC1 [Compound 1 nitrate salt]
[2]; exposed to both UV and visible light
  Total impurities compared with the iodide salt: less than the impurities in Compound 1 iodide salt
[2]; UV
  Total impurities: 0.21
[2]; Visible
  Total impurities: 0.16
[2]; control sample
  Total impurities: 0.06

## C[C@H](NC(=O)OC[n+]1cccc(C(=O)NCCO[N+](=O)[O-])c1)C1CCCCC1 [Compound 1 4-Nitrobesylate Salt]
[1]; 5° C., 1st Month
  Purity: 98.1
[1]; 5° C., 2nd Month
  Purity: 98.1
[1]; 5° C., 3rd Month
  Purity: 97.8
[1]; 5° C., 6th Month
  Purity: 97.9
[1]; 5° C., Initial
  Purity: 98.1
[1]; 25° C., 1st Month
  Purity: 97.2
[1]; 25° C., 2nd Month
  Purity: 93.1
[1]; 25° C., 3rd Month
  Purity: 86.8
[1]; 25° C., 6th Month
  Purity: 80.3
[1]; 25° C., Initial
  Purity: 98.1

## C[C@H](NC(=O)OC[n+]1cccc(C(=O)NCCO[N+](=O)[O-])c1)C1CCCCC1 [Compound 1 Besylate Salt]
[1]; 5° C., 1st Month
  Purity: 88.8
[1]; 5° C., 2nd Month
  Purity: 88.6
[1]; 5° C., 3rd Month
  Purity: 87.5
[1]; 5° C., 6th Month
  Purity: 86.9
[1]; 5° C., Initial
  Purity: 96.6
[1]; 25° C., 1st Month
  Purity: 87.1
[1]; 25° C., 2nd Month
  Purity: 79.3
[1]; 25° C., 3rd Month
  Purity: 66.7
[1]; 25° C., 6th Month
  Purity: 51.2
[1]; 25° C., Initial
  Purity: 96.6

## C[C@H](NC(=O)OC[n+]1cccc(C(=O)NCCO[N+](=O)[O-])c1)C1CCCCC1 [Compound 1 Trifluoroacetate Salt]
[1]; 5° C., 1st Month
  Purity: 97.2
[1]; 5° C., 2nd Month
  Purity: 96.6
[1]; 5° C., 3rd Month
  Purity: 97.0
[1]; 5° C., 6th Month
  Purity: 97.2
[1]; 5° C., Initial
  Purity: 98.6
[1]; 25° C., 1st Month
  Purity: 96.5
[1]; 25° C., 2nd Month
  Purity: 94.6
[1]; 25° C., 3rd Month
  Purity: 92.2
[1]; 25° C., 6th Month
  Purity: 85.9
[1]; 25° C., Initial
  Purity: 98.6

## C[C@H](NC(=O)OC[n+]1cccc(C(=O)NCCO[N+](=O)[O-])c1)C1CCCCC1 [Compound 1 Triflate Salt]
[1]; 5° C., 1st Month
  Purity: 95.0
[1]; 5° C., 2nd Month
  Purity: 95.0
[1]; 5° C., 3rd Month
  Purity: 94.8
[1]; 5° C., 6th Month
  Purity: 96.1
[1]; 5° C., Initial
  Purity: 96.6
[1]; 25° C., 1st Month
  Purity: 94.4
[1]; 25° C., 2nd Month
  Purity: 91.1
[1]; 25° C., 3rd Month
  Purity: 85.8
[1]; 25° C., 6th Month
  Purity: 78.5
[1]; 25° C., Initial
  Purity: 96.6

## C[C@H](NC(=O)OC[n+]1cccc(C(=O)NCCO[N+](=O)[O-])c1)C1CCCCC1 [Compound 1 Phosphate Salt]
[1]; 5° C., 1st Month
  Purity: 95.8
[1]; 5° C., 2nd Month
  Purity: 93.8
[1]; 5° C., 3rd Month
  Purity: 94.6
[1]; 5° C., 6th Month
  Purity: 94.5
[1]; 5° C., Initial
  Purity: 96.5
[1]; 25° C., 1st Month
  Purity: 93.3
[1]; 25° C., 2nd Month
  Purity: 83.7
[1]; 25° C., 3rd Month
  Purity: 78.2
[1]; 25° C., 6th Month
  Purity: 69.4
[1]; 25° C., Initial
  Purity: 96.5
[1]; 40° C., 1st Month
  Purity: 91.4
[1]; 40° C., 2nd Month
  Purity: 63.1
[1]; 40° C., 3rd Month
  Purity: 50.9
[1]; 40° C., 6th Month
  Purity: 50.5
[1]; 40° C., Initial
  Purity: 96.5

From patent publication US20250002458A1, “SALT FORMS OF […]” (UNICYCIVE THERAPEUTICS INC., priority 2023, published 2025)
